Patent publication US7304174B2, “CaSR antagonist” (Japan Tobacco Inc., priority 2003, dated 2007)

Biological target: T1, human calcium receptor (Homo sapiens, UniProt P41180)
T1 construct: expressed in transfected cells; host or cells: cell strain derived from rat adrenal, co-transformed with luciferase cDNA
T1 sequence (P41180 20-1078): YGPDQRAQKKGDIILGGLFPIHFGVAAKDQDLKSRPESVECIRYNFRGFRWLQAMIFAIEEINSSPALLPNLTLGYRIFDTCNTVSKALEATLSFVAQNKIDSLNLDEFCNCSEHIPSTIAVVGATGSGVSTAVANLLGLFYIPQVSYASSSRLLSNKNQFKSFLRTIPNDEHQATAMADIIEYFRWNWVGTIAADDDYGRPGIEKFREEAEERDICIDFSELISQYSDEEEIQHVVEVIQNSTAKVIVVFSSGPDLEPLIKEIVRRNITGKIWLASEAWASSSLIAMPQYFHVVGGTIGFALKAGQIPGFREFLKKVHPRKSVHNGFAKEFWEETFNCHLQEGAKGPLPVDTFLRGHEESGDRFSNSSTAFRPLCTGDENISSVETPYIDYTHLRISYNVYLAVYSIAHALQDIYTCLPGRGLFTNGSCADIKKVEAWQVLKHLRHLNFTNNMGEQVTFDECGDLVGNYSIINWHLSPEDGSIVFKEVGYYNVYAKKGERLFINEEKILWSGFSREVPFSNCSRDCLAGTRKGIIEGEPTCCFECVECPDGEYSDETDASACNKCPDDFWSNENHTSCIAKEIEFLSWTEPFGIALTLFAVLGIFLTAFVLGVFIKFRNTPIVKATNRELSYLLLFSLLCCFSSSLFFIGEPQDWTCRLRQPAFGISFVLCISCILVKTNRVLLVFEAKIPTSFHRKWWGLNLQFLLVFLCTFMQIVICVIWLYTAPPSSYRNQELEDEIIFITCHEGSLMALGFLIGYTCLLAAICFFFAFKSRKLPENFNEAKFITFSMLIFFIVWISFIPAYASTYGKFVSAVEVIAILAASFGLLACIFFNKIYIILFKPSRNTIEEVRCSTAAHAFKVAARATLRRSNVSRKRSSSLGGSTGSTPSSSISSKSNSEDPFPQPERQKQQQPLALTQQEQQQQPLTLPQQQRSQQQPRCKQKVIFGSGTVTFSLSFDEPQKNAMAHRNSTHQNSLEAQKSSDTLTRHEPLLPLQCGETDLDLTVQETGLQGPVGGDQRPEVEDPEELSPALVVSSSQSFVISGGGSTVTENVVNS
Assay: Evaluation of antagonistic action on calcium receptor using reporter gene (luciferase)
Format: cell-based
Conditions: transformed rat adrenal derived cells, 5 mM calcium chloride, culture 4 hrs, luciferase activity; read-out: Reporter gene assay (IC50, concentration showing 50% inhibitory rate)
Method in brief: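 Rat adrenal-derived cells transfected with luciferase and human calcium receptor cDNA, in F12 with 0.5% dialyzed horse serum and 0.25% dialyzed fetal bovine serum. Luciferase luminescence gave % inhibition vs control and blank; IC50 at 50% inhibition.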

| IC50 [nM] | Compound |
| --- | --- |
| 27 | COc1cc(-c2ccccc2[C@@H](C)OC[C@H](O)CNC(C)(C)Cc2ccc(Cl)c(F)c2)ccc1C(=O)O [Example 1-82, 2′-[1-[(2R)-3-[[1-(4-chloro-3-fluorophenyl)-2-methylpropan-2-yl]amino]-2-hydroxypropoxy]ethyl]-3-methoxybiphenyl-4-carboxylic acid] |
| 14 | Cc1cc(-c2ccccc2[C@@H](C)OC[C@H](O)CNC(C)(C)Cc2ccc(Cl)c(F)c2)ccc1C(=O)O [Example 1-88] |
| 13 | Cc1ccc(CC(C)(C)NC[C@@H](O)CO[C@H](C)c2ccccc2-c2ccc(C(=O)O)c(C(C)(C)C)c2)cc1F [Example 1-98, 2′-[1-[(2R)-3-[[1-(3-fluoro-4-methylphenyl)-2-methylpropan-2-yl]amino]-2-hydroxypropoxy]ethyl]-3-t-butylbiphenyl-4-carboxylic acid] |
| 23 | C[C@@H](OC[C@H](O)CNC(C)(C)Cc1ccc(Cl)cc1F)c1ccccc1-c1ccc(C(=O)O)c(C(C)(C)C)c1 [Example 1-99, 2′-[1-[(2R)-3-[[1-(4-chloro-2-fluorophenyl)-2-methylpropan-2-yl]amino]-2-hydroxypropoxy]ethyl]-3-t-butylbiphenyl-4-carboxylic acid] |
| 17 | C[C@@H](OC[C@H](O)CNC(C)(C)Cc1ccc(Cl)c(F)c1)c1ccccc1-c1ccc(C(=O)O)c(C(C)(C)C)c1 [Example 1-100, 2′-[1-[(2R)-3-[[1-(4-chloro-3-fluorophenyl)-2-methylpropan-2-yl]amino]-2-hydroxypropoxy]ethyl]-3-t-butylbiphenyl-4-carboxylic acid] |
| 9 | Cc1cc(-c2ccccc2[C@@H](C)OC[C@H](O)CNC(C)(C)Cc2ccc(Cl)c(F)c2)ccc1C(=O)O [Example 1-105] |
| 20 | C[C@@H](OC[C@H](O)CNC(C)(C)Cc1ccc(Cl)c(F)c1)c1ccccc1-c1ccc(C(=O)O)c(CO)c1 [Example 1-106, 2′-[1-[(2R)-3-[[1-(4-chloro-3-fluorophenyl)-2-methylpropan-2-yl]amino]-2-hydroxypropoxy]ethyl]-3-(hydroxymethyl)biphenyl-4-carboxylic acid] |
| 200 | C[C@@H](OC[C@H](O)CNC(C)(C)Cc1ccc(Cl)c(F)c1)c1ccccc1-c1ccc(C(=O)O)c(C(=O)O)c1 [Example 1-107, 2′-[1-[(2R)-3-[[1-(4-chloro-3-fluorophenyl)-2-methylpropan-2-yl]amino]-2-hydroxypropoxy]ethyl]-3-carboxylphenyl-4-carboxylic acid] |

Continued, compound first:

| Compound | IC50 [nM] |
| --- | --- |
| COc1cc(-c2ccccc2[C@@H](C)OC[C@H](O)CNC(C)(C)Cc2ccc(Cl)cc2F)ccc1C(=O)O [Example 1-81, 2′-[1-[(2R)-3-[[1-(4-chloro-2-fluorophenyl)-2-methylpropan-2-yl]amino]-2-hydroxypropoxy]ethyl]-3-methoxybiphenyl-4-carboxylic acid] | 26 |
| Cc1cc(C(=O)O)ccc1-c1ccccc1[C@@H](C)OC[C@H](O)CNC(C)(C)Cc1ccc(Cl)c(F)c1 [Example 1-83, 2′-[1-[(2R)-3-[[1-(4-chloro-3-fluorophenyl)-2-methylpropan-2-yl]amino]-2-hydroxypropoxy]ethyl]-2-methylbiphenyl-4-carboxylic acid] | 16 |
| Cc1cc(C(=O)O)ccc1-c1ccccc1[C@@H](C)OC[C@H](O)CNC(C)(C)Cc1ccc(Cl)cc1F [Example 1-84, 2′-[1-[(2R)-3-[[1-(4-chloro-2-fluorophenyl)-2-methylpropan-2-yl]amino]-2-hydroxypropoxy]ethyl]-2-methylbiphenyl-4-carboxylic acid] | 22 |
| Cc1ccc(-c2ccccc2[C@@H](C)OC[C@H](O)CNC(C)(C)Cc2ccc3ccccc3c2)cc1C(=O)O [Example 1-85, 4-methyl-2′-[1-[(2R)-3-[[1-(naphthalen-2-yl)-2-methylpropan-2-yl]amino]-2-hydroxypropoxy]ethyl]biphenyl-3-carboxylic acid] | 4 |
| Cc1ccc(CC(C)(C)NC[C@@H](O)CO[C@H](C)c2ccccc2-c2ccc(C)c(C(=O)O)c2)cc1F [Example 1-86, 2′-[1-[(2R)-3-[[1-(3-fluoro-4-methylphenyl)-2-methylpropan-2-yl]amino]-2-hydroxypropoxy]ethyl]-4-methylbiphenyl-3-carboxylic acid] | 14 |
| Cc1cc(-c2ccccc2[C@@H](C)OC[C@H](O)CNC(C)(C)Cc2cc(Cl)cc(Cl)c2)ccc1C(=O)O [Example 1-87, 2′-[1-[(2R)-3-[[1-(3,5-dichlorophenyl)-2-methylpropan-2-yl]amino]-2-hydroxypropoxy]ethyl]-3-methylbiphenyl-4-carboxylic acid] | 14 |
| Cc1cc(-c2ccccc2[C@@H](C)OC[C@H](O)CNC(C)(C)Cc2cc(F)ccc2F)ccc1C(=O)O [Example 1-89, 2′-[1-[(2R)-3-[[1-(2,5-difluorophenyl)-2-methylpropan-2-yl]amino]-2-hydroxypropoxy]ethyl]-3-methylbiphenyl-4-carboxylic acid] | 271 |
| Cc1cc(F)c(CC(C)(C)NC[C@@H](O)CO[C@H](C)c2ccccc2-c2ccc(C(=O)O)c(C)c2)cc1Cl [Example 1-90, 2′-[1-[(2R)-3-[[1-(5-chloro-2-fluoro-4-methylphenyl)-2-methylpropan-2-yl]amino]-2-hydroxypropoxy]ethyl]-3-methylbiphenyl-4-carboxylic acid] | 271 |
| Cc1cc(-c2ccccc2[C@@H](C)OC[C@H](O)CNC(C)(C)Cc2cccc(Cl)c2F)ccc1C(=O)O [Example 1-91, 2′-[1-[(2R)-3-[[1-(3-chloro-2-fluorophenyl)-2-methylpropan-2-yl]amino]-2-hydroxypropoxy]ethyl]-3-methylbiphenyl-4-carboxylic acid] | 28 |
| Cc1cc(-c2ccccc2[C@@H](C)OC[C@H](O)CNC(C)(C)Cc2ccc(C(F)(F)F)c(F)c2)ccc1C(=O)O [Example 1-92, 2′-[1-[(2R)-3-[[1-(3-fluoro-4-trifluoromethylphenyl)-2-methylpropan-2-yl]amino]-2-hydroxypropoxy]ethyl]-3-methylbiphenyl-4-carboxylic acid] | 22 |
| Cc1cc(-c2ccccc2[C@@H](C)OC[C@H](O)CNC(C)(C)Cc2cc(F)cc(Cl)c2)ccc1C(=O)O [Example 1-93] | 27 |
| Cc1cc(-c2ccccc2[C@@H](C)OC[C@H](O)CNC(C)(C)Cc2cc(C(F)(F)F)cc(C(F)(F)F)c2)ccc1C(=O)O [Example 1-94, 2′-[1-[(2R)-3-[[1-(3,5-ditrifluoromethylphenyl)-2-methylpropan-2-yl]amino]-2-hydroxypropoxy]ethyl]-3-methylbiphenyl-4-carboxylic acid] | 28 |
| Cc1cc(-c2ccccc2[C@@H](C)OC[C@H](O)CNC(C)(C)Cc2ccc(Cl)c(C(F)(F)F)c2)ccc1C(=O)O [Example 1-97, 2′-[1-[(2R)-3-[[1-(4-chloro-3-trifluoromethylphenyl)-2-methylpropan-2-yl]amino]-2-hydroxypropoxy]ethyl]-3-methylbiphenyl-4-carboxylic acid] | 106 |
| Cc1ccc(CC(C)(C)NC[C@@H](O)CO[C@H](C)c2ccccc2-c2ccc(C(=O)O)c(N3CCOCC3)c2)cc1F [Example 1-102, 2′-[1-[(2R)-3-[[1-(3-fluoro-4-methylphenyl)-2-methylpropan-2-yl]amino]-2-hydroxypropoxy]ethyl]-3-morpholinobiphenyl-4-carboxylic acid] | 14 |
| Cc1ccc(CC(C)(C)NC[C@@H](O)CO[C@H](C)c2ccccc2-c2ccc(C(=O)O)c(OC(F)(F)F)c2)cc1F [Example 1-103, 2′-[1-[(2R)-3-[[1-(3-fluoro-4-methylphenyl)-2-methylpropan-2-yl]amino]-2-hydroxypropoxy]ethyl]-3-(trifluoromethoxy)biphenyl-4-carboxylic acid] | 3 |
| Cc1cc(-c2ccccc2[C@@H](C)OC[C@H](O)CNC(C)(C)Cc2ccc(C)c(C(F)(F)F)c2)ccc1C(=O)O [Example 1-104, 2′-[1-[(2R)-3-[[1-(3-trifluoromethyl-4-methylphenyl)-2-methylpropan-2-yl]amino]-2-hydroxypropoxy]ethyl]-3-methylbiphenyl-4-carboxylic acid] | 28 |
| Cc1ccc(CC(C)(C)NC[C@@H](O)CO[C@H](C)c2ccccc2-c2ccc(C(=O)O)c(C)c2)cc1F [Example 1-108] | 14 |
| Cc1cc(-c2ccccc2[C@@H](C)OC[C@H](O)CNC(C)(C)Cc2ccc(Cl)cc2F)ccc1C(=O)O [Example 1-109] | 15 |
